Source: patent US20200261383A1, “PHARMACEUTICAL COMPOSITIONS” (KALVISTA PHARMACEUTICALS LIMITED, priority 2017, published 2020)

What was measured:
[1] = system: diabetic rats; conditions: cited from earlier work
[2] = Ocular pharmacokinetic study in monkey, intravitreal injection on Day 1, 29 and 57; type: in vivo, cynomolgus monkeys; conditions: monkeys; IVT 5 μg/eye Day 1, 29, 57; calculated post third dose, sampling interval Day 57-99
[3] = solution for injection; cited from earlier work

N=C(N)c1ccc(CNC(=O)c2cnn(Cc3ccccc3)c2)cc1 [ASP-440]
Retinal blood flow abnormalities [1]: ameliorated
Retinal vascular permeability [1]: ameliorated

CCOc1ccc(C[C@@H](NC(=O)c2ccccc2)C(=O)N[C@@H](Cc2ccccc2)C(=O)NCc2ccc(CN)cc2)cc1.Cl [Compound 1, N-[(R)-1-[(S)-1-(4-Aminomethyl-benzylcarbamoyl)-2-phenyl-ethylcarbamoyl]-2-(4-ethoxy-phenyl)-ethyl]-benzamide hydrochloride]
AUC0-last in Ocular Tissue, Aqueous Humor [2]: 1,410 ng · h/mL or ng · h/g
AUC0-last in Ocular Tissue, Choroid-Tissue [2]: 32,200 ng · h/mL or ng · h/g
AUC0-last in Ocular Tissue, Retina- Tissue [2]: 166,000 ng · h/mL or ng · h/g
AUC0-last in Ocular Tissue, Vitreous Humor [2]: 1,110 ng · h/mL or ng · h/g

Ecallantide
Safety in medical use [3]: risk of anaphylactic reactions
